Results: US20080287445A1, “Prokineticin 2 receptor antagonists” (priority 2005, published 2008)
Where “and” joins values, the source holds several entries; their conditions need not be identical. Equal entries are not always repeated.

Target: T1, GPR73 (prokineticin 1 receptor) (Homo sapiens, UniProt Q8TCW9)
T1 construct: expressed in transfected cells; host or cells: HEK 293
Test: PK1 functional assay: Ca2+ mobilization screening for PK1 antagonists on the FLIPR
Assay type: cell-based
Conditions: HEK 293 GPR73 cells, multiple values = multiple testing; for inhibition at 10 µM: HEK293, 10 μM compound, read-out: Ca^2+ Mobilization % Inh @ 10 μM; for IC50: PK1 ligand preparation at its EC50, read-out: Ca^2+ Mobilization IC50; for Ca^2+ Mobilization % Inh @ 10 μM: 10 μM compound
Procedure, shortened: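 HEK293 cells expressing human GPR73 were loaded with Calcium Plus dye, then on FLIPR given compound for 4 min 15 s before PK1 ligand at its predetermined EC50. Baseline-subtracted fluorescence over 1 min 45 s gave percent inhibition versus maximal signal; IC50 fitted.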

T1 sequence (Q8TCW9 whole entry, species assumed): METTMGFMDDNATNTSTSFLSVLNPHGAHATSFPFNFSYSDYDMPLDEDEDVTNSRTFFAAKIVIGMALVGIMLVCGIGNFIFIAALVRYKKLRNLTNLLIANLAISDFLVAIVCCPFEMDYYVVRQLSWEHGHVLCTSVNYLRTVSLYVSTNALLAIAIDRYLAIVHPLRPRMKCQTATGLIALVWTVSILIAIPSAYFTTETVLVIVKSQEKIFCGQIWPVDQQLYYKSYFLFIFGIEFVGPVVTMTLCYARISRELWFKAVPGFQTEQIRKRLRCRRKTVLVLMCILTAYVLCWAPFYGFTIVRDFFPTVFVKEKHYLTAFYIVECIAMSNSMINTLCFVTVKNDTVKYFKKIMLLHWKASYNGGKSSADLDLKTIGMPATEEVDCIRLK

Compound	inhibition at 10 µM [%]	IC50	Ca^2+ Mobilization % Inh @ 10 μM
Cc1cc(C)c(CNc2nc(=O)n(Cc3ccc4sccc4c3)c(=O)n2Cc2ccc(OC(F)F)cc2)c(N)n1 [Cpd 174]	87	290 nM	
Cc1cc(C)c(CNc2nc(=O)n(Cc3ccc4c(c3)CCO4)c(=O)n2Cc2ccc(OC(F)F)cc2)c(N)n1 [Cpd 176]	96	23 nM and 48 nM and 130 nM	98%
COc1ccc(Cn2c(CCc3ccncc3)cc(=O)n(Cc3ccc(OC)cc3)c2=O)cc1 [Cpd 183]	68	2460 nM	
COc1ccc(Cn2c(C=Cc3ccncc3)cc(=O)n(Cc3ccc(OC)cc3)c2=O)cc1 [Cpd 184, 1,3-Bis-(4-methoxy-benzyl)-6-(2-pyridin-4-yl-vinyl)-1H-pyrimidine-2,4-dione]	65	2690 nM	
Cc1cc(C)c(CNc2nc(=O)n(Cc3ccc4c(c3)CCO4)c(=O)n2Cc2ccc3c(c2)CCO3)c(N)n1 [Cpd 185, 6-[(2-Amino-4,6-dimethyl-pyridin-3-ylmethyl)-amino]-1,3-bis-(2,3-dihydro-benzofuran-5-ylmethyl)-1H-[1,3,5]triazine-2,4-dione]	92	15 nM and 80 nM and 118 nM	94% and 98%
Cc1cc(C)c(CNc2nc(=O)n(Cc3ccc4occc4c3)c(=O)n2Cc2ccc3c(c2)CCO3)c(N)n1 [Cpd 186]	99	74 nM and 97 nM	100%
COc1ccc(Cn2c(CCc3ccccn3)cc(=O)n(Cc3ccc(OC)cc3)c2=O)cc1 [Cpd 187]	41	> 10000 nM	
COc1ccc(Cn2c(CCc3cccnc3C(N)=O)cc(=O)n(Cc3ccc(OC)cc3)c2=O)cc1 [Cpd 189]	38	> 10000 nM	
COc1ccc(Cn2c(OCc3cccnc3N)cc(=O)n(Cc3ccc(OC)cc3)c2=O)cc1 [Cpd 190]	79	502 nM	

Second part, the compound after the results:

inhibition at 10 µM [%]	IC50	Ca^2+ Mobilization % Inh @ 10 μM	Compound
88	515 nM		COc1ccc(Cn2c(=O)nc(NCc3cnc(C)cc3C)n(Cc3cccc4cc[nH]c34)c2=O)cc1 [Cpd 172]
97	207 nM		CSc1ccc(Cn2c(=O)nc(NCc3c(C)cc(C)nc3N)n(Cc3ccc(OC(F)F)cc3)c2=O)cc1 [Cpd 173]
96	57 nM and 93 nM	99%	Cc1cc(C)c(CNc2nc(=O)n(Cc3ccc4occc4c3)c(=O)n2Cc2ccc(OC(F)F)cc2)c(N)n1 [Cpd 175]
79	640 nM		CSc1ccc(Cn2c(=O)nc(NCc3cnc(C)cc3C)n(Cc3ccc(OC(F)F)cc3)c2=O)cc1 [Cpd 177]
46	8650 nM		Cc1cc(C)c(CNc2nc(=O)n(Cc3ccc4occc4c3)c(=O)n2Cc2ccc(OC(F)F)cc2)cn1 [Cpd 178]
61	4530 nM		Cc1cc(C)c(CNc2nc(=O)n(Cc3ccc4c(c3)CCO4)c(=O)n2Cc2ccc(OC(F)F)cc2)cn1 [Cpd 179]
37	> 10000 nM		Cc1cc(C)c(CNc2nc(=O)n(Cc3ccccc3C#N)c(=O)n2Cc2ccc(OC(F)F)cc2)cn1 [Cpd 180]
61	3730 nM		Cc1cc(C)c(CNc2nc(=O)n(Cc3ccc(O)cc3)c(=O)n2Cc2ccc(OC(F)F)cc2)cn1 [Cpd 181]
55	8510 nM		CC(=O)Oc1ccc(Cn2c(=O)nc(NCc3cnc(C)cc3C)n(Cc3ccc(OC(F)F)cc3)c2=O)cc1 [Cpd 182]
66	579 nM		COc1ccc(Cn2c(NCc3cccn4ccnc34)nc(=O)n(Cc3ccc(OC)cc3)c2=O)cc1 [Cpd 188, 6-[(Imidazo[1,2-a]pyridin-8-ylmethyl)-amino]-1,3-bis-(4-methoxy-benzyl)-1H-[1,3,5]triazine-2,4-dione]
50	8370 nM		Cc1cc(C)c(CNc2nc(=O)n(Cc3ccc(CO)cc3)c(=O)n2Cc2ccc(OC(F)F)cc2)cn1 [Cpd 191]
